Assay in all cases: Bacterial growth minimal inhibitory concentration (broth microdilution, CLSI M7-A7)
Common to all, as to assay type: cell-based
(In general: In broth dilution the organism is exposed to a series of concentrations in liquid medium.)

The subject of assay [1] is Moraxella catarrhalis A894. As to conditions: quinolone-sensitive strain; for MIC: Moraxella catarrhalis, A894, cation-adjusted Mueller-Hinton Broth. Put shortly: (§1)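 Compounds are serially diluted in cation-adjusted Mueller-Hinton broth, inoculated and scored for MIC (mg/L) per the CLSI M7-A7 microdilution standard. A798 and T6474 carry multiple resistances including to quinolones.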

Assay [2] deals with Enterococcus faecium A949. The settings on record: multiply-resistant strain (in particular quinolone-resistant); for MIC: Enterococcus faecium, A949, cation-adjusted Mueller-Hinton Broth, read-out: MIC for E. faecium A949. The gist of the method: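 Broth microdilution after CLSI M7-A7 in cation-adjusted Mueller-Hinton medium gave MIC values in mg/L.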
Assay [3] concerns Staphylococcus aureus A798. As to conditions: multiply-resistant strain (in particular quinolone-resistant); for MIC: Staphylococcus aureus, A798, cation-adjusted Mueller-Hinton Broth, read-out: MIC for S. aureus A798. The gist of the method:
as §1

In assay [4] the test system is Staphylococcus aureus ATCC29213. As to conditions: methicillin-sensitive and quinolone-sensitive strain; for MIC: Staphylococcus aureus, ATCC29213, cation-adjusted Mueller-Hinton Broth, read-out: MIC for S. aureus ATCC29213. Put shortly:
as §1

For assay [5], the system named is Acinetobacter baumannii T6474. As to conditions: multiply-resistant strain (in particular quinolone-resistant); for MIC: Acinetobacter baumannii, T6474, cation-adjusted Mueller-Hinton Broth. The gist of the method: as §1
[6] abbreviates: cation-adjusted Mueller-Hinton Broth.

Values after ≈ are worked out from the molar mass of the structure shown. Where only a bound is given, the exact number is not on record here.

Turning to `COc1cnnc(-c2cccc(CNCC[C@@H]3CN(c4ccc5c(n4)NC(=O)CS5)C(=O)O3)c2)c1` [Example 98, 6-((R)-5-{2-[3-(5-methoxy-pyridazin-3-yl)-benzylamino]-ethyl}-2-oxo-oxazolidin-3-yl)-4H-pyrido[3,2-b][1,4]thiazin-3-one], the minimum inhibitory concentration (MIC) (usually the lowest concentration that inhibits growth of the organism) in assay [1] was 0.031 µg/mL (≈ 0.0629 µM); in assay [2], 4 µg/mL (≈ 8.12 µM); in assay [3] it was 0.125 µg/mL (≈ 0.254 µM); in assay [4], 0.25 µg/mL (≈ 0.508 µM); in assay [5], 0.25 µg/mL (≈ 0.508 µM).

Regarding `COc1cnnc(-c2cccc(CNCC[C@H]3CN(c4ccc5c(n4)NC(=O)CS5)C(=O)O3)c2)c1` [Example 99, 6-((S)-5-{2-[3-(5-methoxy-pyridazin-3-yl)-benzylamino]-ethyl}-2-oxo-oxazolidin-3-yl)-4H-pyrido[3,2-b][1,4]thiazin-3-one], the minimal inhibitory concentration (MIC) is ≤ 0.016 µg/mL in assay [1]; 2 µg/mL (≈ 4.06 µM) in assay [2]; 0.031 µg/mL (≈ 0.0629 µM) in assay [3]; 0.031 µg/mL (≈ 0.0629 µM) in assay [4]; 0.125 µg/mL (≈ 0.254 µM) in assay [5].

`N#Cc1cccc(-c2cccc(CNCC[C@H]3CN(c4ccc5c(n4)NC(=O)CS5)C(=O)O3)c2)c1` [Example 100, 3′-({2-[(S)-2-oxo-3-(3-oxo-3,4-dihydro-2H-pyrido[3,2-b][1,4]thiazin-6-yl)-oxazolidin-5-yl]-ethylamino}-methyl)-biphenyl-3-carbonitrile]: the MIC in assay [1] is ≤ 0.016 µg/mL; in assay [2], 0.5 µg/mL (≈ 1.03 µM); in assay [3] it was ≤ 0.016 µg/mL; in assay [4], ≤ 0.016 µg/mL; in assay [5] it was 0.125 µg/mL (≈ 0.257 µM).

As for `COc1ccnc(-c2cc(CNCC[C@H]3CN(c4ccc5c(n4)NC(=O)CO5)C(=O)O3)ccc2O)c1` [Example 101, 6-((S)-5-{2-[4-hydroxy-3-(4-methoxy-pyridin-2-yl)-benzylamino]-ethyl}-2-oxo-oxazolidin-3-yl)-4H-pyrido[3,2-b][1,4]oxazin-3-one], the MIC in assay [1] was ≤ 0.016 µg/mL; in assay [2], 2 µg/mL (≈ 4.07 µM); in assay [3] it was ≤ 0.016 µg/mL; in assay [4] it was ≤ 0.016 µg/mL; in assay [5], 0.125 µg/mL (≈ 0.254 µM).

With `COc1cccc(-c2nccc(CNCC[C@H]3CN(c4ccc5c(n4)NC(=O)CO5)C(=O)O3)n2)c1` [Example 102, 6-[(S)-5-(2-{[2-(3-methoxy-phenyl)-pyrimidin-4-ylmethyl]-amino}-ethyl)-2-oxo-oxazolidin-3-yl]-4H-pyrido[3,2-b][1,4]oxazin-3-one], the MIC in assay [1] turned out to be 0.063 µg/mL (≈ 0.132 µM); in assay [2], 4 µg/mL (≈ 8.39 µM); in assay [3], 1 µg/mL (≈ 2.1 µM); in assay [4], 0.25 µg/mL (≈ 0.525 µM); in assay [5], 1 µg/mL (≈ 2.1 µM).

For `COc1cccc(-c2cnnc(CNCC[C@H]3CN(c4ccc5c(n4)NC(=O)CO5)C(=O)O3)c2)c1` [Example 103, 6-[(S)-5-(2-{[5-(3-methoxy-phenyl)-pyridazin-3-ylmethyl]-amino}-ethyl)-2-oxo-oxazolidin-3-yl]-4H-pyrido[3,2-b][1,4]oxazin-3-one], the minimal inhibitory concentration (MIC) in assay [1] is 0.063 µg/mL (≈ 0.132 µM); in assay [2], 2 µg/mL (≈ 4.2 µM); in assay [3], 1 µg/mL (≈ 2.1 µM); in assay [4], 0.25 µg/mL (≈ 0.525 µM); in assay [5] it was 0.5 µg/mL (≈ 1.05 µM).

Take `COc1cccc(-c2cncc(CNCC[C@H]3CN(c4ccc5c(n4)NC(=O)CO5)C(=O)O3)n2)c1` [Example 104, 6-[(S)-5-(2-{[6-(3-methoxy-phenyl)-pyrazin-2-ylmethyl]-amino}-ethyl)-2-oxo-oxazolidin-3-yl]-4H-pyrido[3,2-b][1,4]oxazin-3-one]: the minimal inhibitory concentration (MIC) in assay [1] was 0.031 µg/mL (≈ 0.0651 µM); in assay [2] it was 2 µg/mL (≈ 4.2 µM); in assay [3] it was 0.25 µg/mL (≈ 0.525 µM); in assay [4], 0.25 µg/mL (≈ 0.525 µM); in assay [5], 0.5 µg/mL (≈ 1.05 µM).

For `COc1cccc(-c2cc(CNCC[C@H]3CN(c4ccc5c(n4)NC(=O)CO5)C(=O)O3)cnn2)c1` [Example 105, 6-[(S)-5-(2-{[6-(3-methoxy-phenyl)-pyridazin-4-ylmethyl]-amino}-ethyl)-2-oxo-oxazolidin-3-yl]-4H-pyrido[3,2-b][1,4]oxazin-3-one], the MIC was 0.25 µg/mL (≈ 0.525 µM) in assay [1]; > 8 µg/mL in assay [2]; 8 µg/mL (≈ 16.8 µM) in assay [3]; 4 µg/mL (≈ 8.39 µM) in assay [4]; 4 µg/mL (≈ 8.39 µM) in assay [5].

For `COc1ccnc(-c2cccc(CNCC[C@H]3CN(c4ccc5c(n4)NC(=O)CO5)C(=O)O3)c2O)c1` [Example 106, 6-((S)-5-{2-[2-hydroxy-3-(4-methoxy-pyridin-2-yl)-benzylamino]-ethyl}-2-oxo-oxazolidin-3-yl)-4H-pyrido[3,2-b][1,4]oxazin-3-one], the minimum inhibitory concentration (MIC) in assay [1] is ≤ 0.016 µg/mL; in assay [2] it was 2 µg/mL (≈ 4.07 µM); in assay [3], 0.125 µg/mL (≈ 0.254 µM); in assay [4], 0.125 µg/mL (≈ 0.254 µM); in assay [5] it was 1 µg/mL (≈ 2.03 µM).

For the molecule `COc1cccc(-c2cccc(CNCCc3nn(-c4ccc5c(n4)NC(=O)CO5)c(=O)o3)c2)c1` [Example 107, 6-(5-{2-[(3′-methoxy-biphenyl-3-ylmethyl)-amino]-ethyl}-2-oxo-[1,3,4]oxadiazol-3-yl)-4H-pyrido[3,2-b][1,4]oxazin-3-one], the MIC was determined as 0.063 µg/mL (≈ 0.133 µM) in assay [1]; 8 µg/mL (≈ 16.9 µM) in assay [2]; 8 µg/mL (≈ 16.9 µM) in assay [3]; 4 µg/mL (≈ 8.45 µM) in assay [4]; 2 µg/mL (≈ 4.22 µM) in assay [5].

Consider `COc1cnnc(-c2cccc(CNCCc3nn(-c4ccc5c(n4)NC(=O)CO5)c(=O)o3)c2)c1` [Example 108, 6-(5-{2-[3-(5-methoxy-pyridazin-3-yl)-benzylamino]-ethyl}-2-oxo-[1,3,4]oxadiazol-3-yl)-4H-pyrido[3,2-b][1,4]oxazin-3-one], for which the minimal inhibitory concentration (MIC) in assay [1] is 0.125 µg/mL (≈ 0.263 µM); in assay [2], > 8 µg/mL; in assay [3], 4 µg/mL (≈ 8.41 µM); in assay [4], 2 µg/mL (≈ 4.21 µM); in assay [5], 1 µg/mL (≈ 2.1 µM).

In the case of `COc1cccc(-c2cc(CNCC[C@H]3CN(c4ccc5c(n4)NC(=O)CO5)C(=O)O3)ccc2O)n1` [Example 109], the “MIC for M. catarrhalis A894” value in assay [1] (setting [6]) is recorded as “≦0.016 mg/L”. Also, the “MIC for E. faecium A949” value in assay [2] (setting [6]) was 2 µg/mL. For the same molecule, in assay [3] (setting [6]), the “MIC for S. aureus A798” value came to 0.031 µg/mL. Besides, the “MIC for S. aureus ATCC29213” value in assay [4] (setting [6]) came out at 0.031 µg/mL. In addition, in assay [5] (setting [6]), the “MIC for A. baumannii T6474” value is 0.125 µg/mL.

For `COc1cnnc(-c2cncc(CNCC[C@H]3CN(c4ccc5c(n4)NC(=O)CO5)C(=O)O3)c2)c1` [Example 110, (S)-6-(5-(2-(((5-(5-methoxypyridazin-3-yl)pyridin-3-yl)methyl)amino)ethyl)-2-oxooxazolidin-3-yl)-2H-pyrido[3,2-b][1,4]oxazin-3(4H)-one], the MIC in assay [1] is 0.125 µg/mL (≈ 0.262 µM); in assay [2], > 8 µg/mL; in assay [3] it was 4 µg/mL (≈ 8.38 µM); in assay [4] it was 4 µg/mL (≈ 8.38 µM); in assay [5], 2 µg/mL (≈ 4.19 µM).

Consider `COc1cnnc(-c2ccnc(CNCC[C@H]3CN(c4ccc5c(n4)NC(=O)CO5)C(=O)O3)c2)c1` [Example 111, (S)-6-(5-(2-(((4-(5-methoxypyridazin-3-yl)pyridin-2-yl)methyl)amino)ethyl)-2-oxooxazolidin-3-yl)-2H-pyrido[3,2-b][1,4]oxazin-3(4H)-one], for which the MIC worked out at 0.031 µg/mL (≈ 0.0649 µM) in assay [1]; 8 µg/mL (≈ 16.8 µM) in assay [2]; 0.5 µg/mL (≈ 1.05 µM) in assay [3]; 0.25 µg/mL (≈ 0.524 µM) in assay [4]; 0.25 µg/mL (≈ 0.524 µM) in assay [5].
